The values that follow are results of earlier work, collected in patent US20180311201A1, “ORAL PHARMACEUTICAL COMPOSITION COMPRISING OTILONIUM BROMIDE AND SIMETHICONE WITH CERTAIN BULK DENSITY AND IMPROVED DISSOLUTION CHARACTERISTICS” (priority 2015, published 2018).

With `CCCCCCCCOc1ccccc1C(=O)Nc1ccc(C(=O)OCC[N+](C)(CC)CC)cc1.[Br-]` [Otilonium bromide, N,N-Diethyl-N-methyl-2-(4-[2-(octyloxy)benzamido]benzoyloxy)ethanaminium bromide], the “Solubility in dimethyl sulfoxide” value (dimethyl sulfoxide) is reported as more than 25 mg/mL. Also, the Solubility in ethanol entry (ethanol) is listed as “soluble”. Besides, the Solubility in water (water) is given as 12 mg/mL.
